Laboratory results taken from publication PMC6271935, “Synthesis and Broad-Spectrum Antiviral Activity of Some Novel Benzo-Heterocyclic Amine Compounds” (Molecules, 2014).
pIC50: −log10 of the molar value.

What was measured:
[1] = system: Influenza A/hanfang/359/95; assay: microbe, parasite or virus in culture; format: cell-based; conditions: for pIC50: Influenza A virus, MDCK
MDCK cells = assay: Cytotoxicity in MDCK cells (CPE); format: cell-based, Canine; conditions: 48 h, Reed & Muench
Protocol: (§1) The cytotoxicity of the compounds in MDCK, Vero and HepG2.2.15 cells was monitored via cytopathic effect (CPE) assays. The MDCK and Vero cells (2.5 × 10^4 /well) were plated in a 96-well plate. Following a 24 h hold period, the monolayer of cells was incubated in the presence of various concentrations of the test compounds. […] The TC50 value was calculated using Reed & Muench analysis.

Cox B3 = assay: organism not typed; format: cell-based, Coxsackie viruses (Cox B3 Nancy strain); conditions: for pIC50: Vero
HCV = assay: Anti-HCV assay in Huh7.5 cells, intracellular HCV RNA by real time RT-PCR; format: cell-based; conditions: Hepatitis C virus, 96 h
Huh7.5 cells = assay: Cytotoxicity in Huh7.5 cells (MTT); format: cell-based, human; conditions: 96 h
Protocol: The Huh7.5 cells (1 × 10^4 cells/well) were plated in 96-well plates. Six hours later the culture media was replaced with fresh medium containing the test compounds at various concentrations. Cytotoxicity was evaluated with the 3-(4,5-dimethylthiazol-2-yl)-2,5-diphenyltetrazolium bromide (MTT) assay after 96 h.
Huh7.5 cells were seeded at a density of 3 × 10^4 cells/cm^2. After 24 h of incubation, the cells were infected with an HCV viral stock (approximately 45 IU per cell) and simultaneously treated with Telaprevir, the test compounds, or the solvent control. The culture medium was removed 96 h after inoculation, and the total intracellular RNA and total intracellular proteins were extracted with a Qiagen Kit according to the manufacturer’s instructions. Intracellular HCV RNA was quantified using a one-step real time RT-PCR kit (Invitrogen). Cytotoxicity was tested by the MTT assay, and IC50 values were calculated by the Reed and Muench methods.

Vero cells = assay: Cytotoxicity in Vero cells (CPE); conditions: 48 h, Reed & Muench
Protocol: as §1

HBV = assay: Anti-HBV assay in HepG2.2.15 cells, viral DNA by real time PCR; format: cell-based, Hepatitis B virus; conditions: for pIC50: Hepatitis B virus, HepG2.2.15, 144 h, intracellular viral DNA, 3 + 3 days
Protocol: The synthesized target compounds were assayed for their broad spectrum antiviral activity towards influenza A, HBV, HCV and Cox B3 virus in vitro. […] The inhibitory activities towards HBV and HCV were tested by real time PCR, and lamivudine (3TC) and teleprevir were used as positive controls, respectively.
The anti-HBV activities of test compounds and a positive control drug were tested in HepG2.2.15 cells. The HepG2.2.15 cells were cultured in 96-well plates and treated with the test compounds at 37 °C for 3 days. The medium was removed, and fresh medium containing the test compounds was added for an additional 3 days. The cells were harvested and intracellular DNA was extracted. The inhibition of viral DNA replication in treated cells versus untreated cells was determined by real time PCR.

HepG2.2.15 cells = assay: Cytotoxicity in HepG2.2.15 cells (CPE); format: cell-based, human; conditions: 3 + 3 days
Protocol: Cells were cultured for 3 days at 37 °C in a 5% CO2 atmosphere in an incubator, and the medium was replaced with fresh medium containing the test compounds for an additional 3 days. The cells were subsequently monitored by CPE and the TC50 value was calculated using Reed and Muench analysis.

Row | Structure (SMILES) | pIC50 [1] | TC50 (50% cytotoxic concentration), Influenza A/hanfang/359/95 (MDCK cells) [µM] | pIC50 (Cox B3) | pIC50 (HCV) | TC50 (50% cytotoxic concentration), HCV (Huh7.5 cells) [µM] | melting point [°C] | TC50 (50% cytotoxic concentration), Cox B3 (Vero cells) [µM] | anti-HBV activity (in words) (HBV) | pIC50 (HBV) | TC50 (50% cytotoxic concentration), HBV (HepG2.2.15 cells) [µM] | anti-influenza A activity (in words) ([1]; MDCK cells, CPE) | inhibitory activity towards Cox B3 (in words) (Cox B3; Vero cells, CPE)
1 | c1csc(CNc2ccc3ncsc3c2)c1 [3h, Benzothiazol-6-yl-thiophen-2-ylmethylamine] | 5.18 | 78.14 | 4.98 | 4.32 | 153.72 | 148 to 150 | 65.03 | – | – | – | – | –
2 | C(=C\c1ccccc1)/CNc1ccc2ncsc2c1 [3e, (E)-benzothiazol-6-yl-(3-phenyl-allyl)-amine] | 5.07 | 24.10 | 5.94 | 5.01 | 43.58 | 99 to 101 | 20.05 | did not exhibit any activity | < 5.25 | 9.62 | – | –
3 | CCC[C@H](NC(=O)[C@@H]1[C@H]2CCC[C@H]2CN1C(=O)[C@@H](NC(=O)[C@@H](NC(=O)c1cnccn1)C1CCCCC1)C(C)(C)C)C(=O)C(=O)NC1CC1 [Telaprevir, telaprevir, reference compound] | – | – | – | 7.96 | 32.12 | – | – | – | – | – | – | –
4 | O=[N+]([O-])c1ccc(CNc2ccc3ncsc3c2)cc1 [3d, Benzothiazol-6-yl-(4-nitrobenzyl)-amine] | 5.47 | 272.01 | 5.74 | 4.65 | 142.86 | – | 181.3 | – | < 5.25 | 9.62 | – | –
5 | CCOC(=O)C1=C[C@@H](OC(CC)CC)[C@H](NC(C)=O)[C@@H](N)C1 [Oseltamivir, oseltamivir, reference compound] | 4.72 | 4030.42 | – | – | – | – | – | – | – | – | – | –
6 | Clc1ccc(CNc2ccc3cc[nH]c3c2)cc1 [1a, (4-Chlorobenzyl)-(1H-indol-6-yl)-amine] | < 5.80 | 3.35 | 5.32 | 5.85 | 15.88 | 135 to 137 | 8.34 | – | 5.84 | 8.02 | – | –
7 | Nc1ccn([C@@H]2CS[C@H](CO)O2)c(=O)n1 [3TC, lamivudine, reference compound] | – | – | – | – | – | – | – | – | 5.73 | >100 | – | –
8 | Cc1ccc(CNc2ccc3cc[nH]c3c2)s1 [1d, (1H-Indol-6-yl)-(5-methylthiophen-2-ylmethyl)-amine] | 4.93 | 26.50 | 5.77 | – | – | 89 to 91 | 66.10 | – | < 4.78 | 28.87 | – | –
9 | O=[N+]([O-])c1cccc(CNc2ccc3ncsc3c2)c1 [3c, Benzothiazol-6-yl-(3-nitrobenzyl)-amine] | 4.90 | 45.01 | 5.14 | – | – | 126 to 128 | 112.45 | – | – | – | – | –
10 | C(=C\c1ccccc1)/CNc1ccc2cc[nH]c2c1 [1b, (E)-(1H-Indol-6-yl)-(3-phenylallyl)-amine] | < 5.78 | 2.86 | 5.54 | – | – | 130 to 132 | 8.61 | – | < 5.73 | 3.21 | – | –
11 | C(=C\c1ccccc1)/CNc1ccc2nc[nH]c2c1 [4a, (E)-(3H-Benzoimidazol-5-yl)-(3-phenyl-allyl)-amine] | 5.31 | 14.84 | 5.20 | 5.26 | 79.04 | – | 25.75 | – | – | – | – | –
12 | Clc1ccc(CNc2ccc3ncoc3c2)s1 [2e, Benzooxazol-6-yl-(5-chlorothiophen-2-ylmethyl)-amine] | 4.96 | 87.30 | 5.45 | 4.75 | 45.78 | 100 to 102 | 29.08 | – | < 4.95 | 19.25 | – | –
13 | c1ccc2c(CNc3ccc4ncsc4c3)c3ccccc3cc2c1 [3k, Anthracen-9-ylmethyl-benzothiazol-6-yl-amine] | < 6.39 | 1.73 | – | – | – | 174 to 176 | 2.09 | – | – | – | complete loss in activity | no inhibitory activity
14 | c1cnc2c(CNc3ccc4ncoc4c3)cccc2c1 [2g, Benzooxazol-6-yl-quinolin-8-ylmethylamine] | 5.04 | 56.04 | 5.05 | 4.85 | 27.57 | 98 to 100 | 80.80 | – | – | – | – | –
15 | C(=C\c1ccccc1)/CNc1ccc2ncoc2c1 [2c, (E)-Benzooxazol-6-yl-(3-phenylallyl)-amine] | 4.94 | 133.16 | 5.91 | 4.98 | 105.44 | 100 to 103 | 103.36 | – | < 4.78 | 28.87 | – | –
16 | c1csc(CNc2ccc3ncoc3c2)c1 [2d, Benzooxazol-6-yl-thiophen-2-ylmethylamine] | 4.46 | 434.24 | 5.03 | < 4.18 | 136.53 | 62 to 64 | 100.35 | – | – | – | – | –
17 | NC(=O)c1ncn([C@@H]2O[C@H](CO)[C@@H](O)[C@H]2O)n1 [RBV, ribavirin, reference compound] | 5.06 | – | 2.67 | – | – | – | – | – | – | – | – | –
18 | c1ncc(CNc2ccc3ncoc3c2)cn1 [2f, Benzooxazol-6-yl-pyrimidin-5-ylmethyl-amine] | < 4.01 | 425.44 | 4.25 | – | – | 175 to 177 | 295.10 | – | – | – | – | –
